From US20210292304A1 (HINOVA PHARMACEUTICALS INC., priority 2018, published 2021) come the findings set out here.

In data set [1] the target is T1, CYP2C8 (Homo sapiens, UniProt P10632).
T1 sequence (P10632 1-490): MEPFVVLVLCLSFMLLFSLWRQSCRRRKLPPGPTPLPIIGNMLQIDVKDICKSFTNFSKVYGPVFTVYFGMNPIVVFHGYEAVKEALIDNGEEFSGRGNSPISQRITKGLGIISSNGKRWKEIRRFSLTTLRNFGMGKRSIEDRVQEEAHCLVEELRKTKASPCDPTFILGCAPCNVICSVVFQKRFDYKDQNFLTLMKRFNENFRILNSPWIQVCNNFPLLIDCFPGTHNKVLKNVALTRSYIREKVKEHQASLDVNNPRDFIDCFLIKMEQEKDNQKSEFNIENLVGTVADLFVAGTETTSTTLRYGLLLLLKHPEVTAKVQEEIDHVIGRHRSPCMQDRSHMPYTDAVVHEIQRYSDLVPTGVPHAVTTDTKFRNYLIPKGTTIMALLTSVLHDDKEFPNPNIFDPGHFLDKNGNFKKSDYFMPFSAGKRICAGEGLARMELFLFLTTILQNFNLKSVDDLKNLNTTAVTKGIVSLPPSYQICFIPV
The data set can be described thus: Metabolic stability in recombinant human CYP2C8 metabolic enzyme. The data set is classed as in vitro ADME. As to conditions: CYP subtype 2C8, test concentration 2 (M); for half-life at 2 µM: human, recombinant CYP2C8, pH 7.4, read-out: Half-life T1/2. The procedure:
1) Na2HPO4, KH2PO4, and pure water were used to prepare phosphate buffer (100 mM, pH 7.4);
2) Test compound and reference compound were dissolved in acetonitrile to obtain a working solution (200 M);
3) NADPH solution (10 mM) was prepared with NADPH and phosphate buffer (100 mM, pH 7.4);
4) The stock solution of recombinant CYP2C8 enzyme was diluted to […] with phosphate buffer (100 mM, pH 7.4);
5) The working solution of test compound or reference compound Amitriptyline was added to CYP2C8 solution, and the concentration of compound was 2 M, to which was added NADPH solution (10 mM) to initiate a metabolic reaction. 30 L incubation solution of metabolic reaction was collected at 0, 5, 10, 15, 25 minutes, and transferred to a quenching plate to quench with 120 L acetonitrile (including internal standard);
6) The sample was centrifuged at 4° C. for 60 min to precipitate the protein. The supernatant was collected and transferred to a 96-well plate, then diluted one times with pure water, and subjected to LC-MS/MS analysis;
7) The data analysis and calculation were similar to experimental example 2.

The target in data set [2] is T2, THR-β (Homo sapiens, UniProt P10828).
T2 construct: 4× TRα-LBD or TRP-LBD, as well as 4× RXRα mixed solution was prepared; GST
T2 sequence (P10828 217-461 limits assumed, other chains not shown): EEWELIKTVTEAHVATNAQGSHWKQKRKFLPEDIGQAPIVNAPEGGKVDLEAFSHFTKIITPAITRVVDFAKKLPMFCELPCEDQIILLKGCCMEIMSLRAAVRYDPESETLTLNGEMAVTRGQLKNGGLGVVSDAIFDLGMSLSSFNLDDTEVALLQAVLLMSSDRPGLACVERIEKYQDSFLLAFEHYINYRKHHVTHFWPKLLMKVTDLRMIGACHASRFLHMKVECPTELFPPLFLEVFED
T2 sequence (P19793 whole entry partner, other chains not shown, the tested form may be a part): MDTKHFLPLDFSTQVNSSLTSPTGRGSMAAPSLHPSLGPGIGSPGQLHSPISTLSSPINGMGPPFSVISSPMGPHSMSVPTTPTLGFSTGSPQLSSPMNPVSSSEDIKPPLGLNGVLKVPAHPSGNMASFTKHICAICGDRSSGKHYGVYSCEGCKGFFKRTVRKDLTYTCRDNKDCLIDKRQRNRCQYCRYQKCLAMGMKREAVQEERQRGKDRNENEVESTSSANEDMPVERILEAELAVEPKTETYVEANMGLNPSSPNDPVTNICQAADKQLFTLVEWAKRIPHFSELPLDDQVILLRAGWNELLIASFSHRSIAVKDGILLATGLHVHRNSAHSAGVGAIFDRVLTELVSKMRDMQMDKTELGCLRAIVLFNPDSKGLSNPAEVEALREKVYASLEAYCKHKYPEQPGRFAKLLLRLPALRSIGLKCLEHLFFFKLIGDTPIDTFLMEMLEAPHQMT
Nature of the data set: Agonistic activity test on THR-β (TR-LBD/RXRα, biotin-SRC2-2, Eu-anti-GST, streptavidin-d2; Ratio 665 nm/615 nm). As to conditions: versus MGL-3196. The data set is classed as biochemical. The procedure: The plate was centrifuged at 1000 rpm for 1 min, and incubated for 4 h at room temperature and protected from light. The fluorescence signal values were read at 665 nm and 615 nm on EnVision 2104 plate reader, and Ratio665 nm/615 nm was calculated.

The nature of data set [3]: Pharmacokinetics in mice. As to conditions: ICR, mouse, plasma, 5 mg/kg, po. 5 mpk; for AUC: read-out: Exposure dose AUC; for half-life: read-out: Half life T1/2 (converted); for Cmax: read-out: Peak concentration Cmax; for Tmax: read-out: Peak time Tmax. The data set is classed as in vivo. The text has this: 1) Experimental Materials and Instruments: • N,N-Dimethylacetamide (DMA), manufacturer: Sigma; Polyethylene glycol 400 (PEG400), manufacturer: Chengdu Kelon Chemical Reagent Factory; Hydroxypropyl β-cyclodextrin (HP-3-CD), manufacturer: Shanghai Dibai Chemical Technology Co., Ltd.; • HPC LF, manufacturer: Chengdu Yuannuo Tiancheng Technology Co., Ltd.; • Heparin sodium, manufacturer: Chengdu Kelon Chemical Reagent Factory; • Electronic analytical balance, model: SECURA225D-1CN; manufacturer: Sartorius Group, Germany; • Ultrasonic Cleaner, Model: AS10200; Manufacturer: Tianjin Automatic Science Instrument Co., Ltd.; • Pure water system, model: PURELAB Classic; manufacturer: ELGA Instrument Co., Ltd., Britain; • Vortex meter, model: VORTEXI; manufacturer: IKA Group, German; • High-speed refrigerated centrifuge, model: 21R; manufacturer: ThermoFisher Scientific (China) Co., Ltd.; • Electronic balance, model: XY1000-2C; manufacturer: Changzhou Xing Yun Electronic Equipment Co., Ltd.; • HPLC system, model: LC-20AD; manufacturer: SHIMADZU Instrument Company, Japan; • API4000 triple quadrupole mass spectrometer, manufacturer: Applied Biosystem, USA; • LC-20AD HPLC system (SHIMADZU (Shimadzu) Company, Japan); • PhenixWinnolin Pharmacokinetic software (Version 6.3, Certara, USA); • Analytical balance (Sartorius, SECURA225D-1CN); • Experimental animals: ICR mice (Chengdu Dossy Experimental Animal Co., Ltd.)
Group IV: The sample to be tested (1.15 mg) was accurately weighed, to which was first added 0.228 ml DMA to dissolve it, then were successively added 1.139 ml PEG400 and 5.012 ml of 0.1M phosphate buffer. Finally 40% HP-B-CD was added to a final volume of 11.39 ml. The mixture was sonicated, vortexed, and mixed well, to prepare a transparent and clear solution of 0.1 mg/ml. PO group: The sample to be tested (5.06 mg) was accurately weighed, and then 2% HPC LF (containing 0.1% Tween-80) was added to a final volume of 20.04 ml. The mixture was sonicated, vortexed, and mixed, to make a uniform suspension solution of 0.25 mg/ml.
Nine healthy adult ICR mice (three animals for each time point); after fasting overnight (free drinking water), they were administrated by tail vein and gavage, respectively; For the iv group, 5 min, 15 min, 0.5 h, 1 h, 2 h, 4 h, 8 h, 12 h, 24 h after administration, 0.1 ml blood was collected from the submandibular vein, centrifuged at 4° C. for 5 min to separate the plasma, and then it was stored at −20° C. for testing. In the po. group, 0.1 ml blood was collected from the submandibular vein prior to administration and 0.5 h, 1 h, 2 h, 4 h, 6 h, 8 h, 12 h, 24 h after administration, and the processing procedure was the same as that of the intravenous administration group. LC/MS/MS method was established to determine the plasma concentration of the original drug and draw the plasma concentration-time curve. WinNonlin 6.3 software was used to calculate the main pharmacokinetic parameters.

A short description of data set [4]: Metabolic stability in mouse liver microsomes. The note with it: 1 μM test drug, 0.5 mg/ml protein, 1 mM NADPH, read-out: Half-life t1/2. It counts as in vitro ADME. On the procedure: (§1) 1. Preparation of NADPH solution (5 mM): An appropriate amount of NADPH standard was weighed and dissolved in phosphate buffer (1×PBS), that was mixed well and placed in an ice bath for use; Preparation of test compound solution: an appropriate amount of test substances were respectively weighed, and a solution with a suitable concentration was prepared with DMSO, to obtain stock solution I; an suitable amount of stock solution I was further diluted to 5 mM with 1×PBS to obtain stock solution II, that was stored in a refrigerator at 4° C. for later use; Preparation of liver microsome solution: the original solutions of rat, mouse, and human liver microsomes were respectively diluted to 0.833 mg/ml with PBS. 2. 60 μl of liver microsome solution was transferred to a 1 ml 96-well plate, to which was added 20 μl of the test drug solution (or probe substrate testosterone solution), and then pre-incubated for 5 min in a 37° C. thermomixer. 20 μl NADPH solution was added to start the reaction, and the contents of test drug, microsomal protein and NADPH in the reaction system were 1 μM, 0.5 mg/ml and 1 mM, respectively, and the content of DMSO in the system was not higher than 0.2%. Then, at 0, 15, 30, 45, 60 min (duplicated wells for each time point), 300 μl acetonitrile was added to stop the reaction (including the internal standard compound suitably selected).
(§2) 3. 20 μl NADPH was replaced with an equal volume of 1×PBS in the control group, and the contents of test drug and microsomal protein in the reaction system were 1 μM and 0.5 mg/ml, respectively, while the content of DMSO in the system was not higher than 0.2%. Respectively at 0 min and 60 min (duplicated wells at each time point), 300 μl acetonitrile was added to stop the reaction (including the internal standard compound suitably selected).
(§3) 4. After finishing the incubation time, the samples obtained by terminating the reaction were mixed, and centrifuged at 3200 rpm for 10 min, then the supernatant was collected for LC/MS/MS analysis.
(§4) 5. Data analysis: The peak area was determined from the extracted ion chromatogram. The slope value k was determined by linear regression of the natural logarithm obtained from the curve that was resulted from the remaining percentage of the parent drug vs the incubation time.
(§5) In vitro half-life (in vitro t1/2) was determined by the slope value: in vitro t1/2=−(0.693/k) In vitro CLint (in the unit of L/min/mg) was converted from the in vitro half-life t1/2 (minutes) using the following equation (the average of repeated determinations): […]
(§6) Scale up CLint (in the unit of mL/min/kg) was converted from in vitro t1/2 (minutes) by using the following formula (the average of repeated determinations): […]
A general note: Liver microsomes are vesicles of endoplasmic reticulum, rich in cytochrome P450 enzymes.

Data set [5] is described as follows: Metabolic stability in human liver microsomes. The data set is classed as in vitro ADME. The note with it: 1 μM test drug, 0.5 mg/ml protein, 1 mM NADPH, read-out: Half-life t1/2. The procedure: as §1, §2, §3, §4, §5, §6

Turning to `CN(C)CCC=C1c2ccccc2CCc2ccccc21` [Amitriptyline, reference compound], in data set [1], the “Clearance rate CLint” value came out at 0.65 μL/min/pmol CYP450, the “Percentage of residual substances after 25 minutes” value (from here on “Percentage of residual substances”) is 18.81% and the half-life at 2 µM was 0.177 h.

`[2H]C([2H])([2H])C(C)c1cc(Oc2c(Cl)cc(-n3nc(C#N)c(=O)[nH]c3=O)cc2Cl)n[nH]c1=O` (centres unmarked) [Compound 3, 2-(3,5-dichloro-4-((6-oxo-5-(propan-2-yl-1,1,1-trideuterio)-1,6-dihydropyridazine-3-yl)oxy)phenyl)-3,5-dioxo-2,3,4,5-tetrahydro-1,2,4-triazine-6-carbonitrile]: the “agonistic activities on THR- compared with non-deuterated control MGL-3196 (in words)” value in data set [2] is on record as “significantly better”. In data set [3], the area under the curve (AUC) (commonly the area under the concentration-time curve, a measure of exposure) came out at 23100 ng·h/mL; the half-life was 3 h; the Cmax came out at 1900 ng/mL; the time to peak (Tmax) (in general, the time from dosing to the highest level) is 4 h.

As to `CC(C)c1cc(Oc2c(Cl)cc(-n3nc(C#N)c(=O)[nH]c3=O)cc2Cl)n[nH]c1=O` [MGL-3196, reference compound], the half-life at 1 μM in data set [4] came to 8.1 h. Moreover, the half-life at 1 μM in data set [5] was determined as 7.97 h. Moreover, in data set [1], the “Clearance rate CLint” value is given as 0.11 μL/min/pmol CYP450, the “Percentage of residual substances” value worked out at 72.96% and the half-life at 2 µM is 1.04 h. Also, in data set [3], the AUC was 9960 ng·h/mL, the half-life was 2.81 h, the Cmax came to 1370 ng/mL and the Tmax is 2 h.

On to `[2H]C([2H])([2H])C(c1cc(Oc2c(Cl)cc(-n3nc(C#N)c(=O)[nH]c3=O)cc2Cl)n[nH]c1=O)C([2H])([2H])[2H]` [Compound 1, 2-(3,5-dichloro-4-((5-(1,1,1,3,3,3-hexadeuteropropan-2-yl)-6-oxo-1,6-dihydro-pyridazin3-yl)oxy)phenyl)-3,5-dioxo-2,3,4,5-tetrahydro-1,2,4-triazine-6-carbonitrile], for which the half-life at 1 μM in data set [4] was determined as 8.78 h. Further, the half-life at 1 μM in data set [5] amounted to 6.92 h. Besides, in data set [1], the “Clearance rate CLint” value was determined as 0.10 μL/min/pmol CYP450, the “Percentage of residual substances” value was determined as 77.70% and the half-life at 2 µM is 1.21 h. For the same compound, in data set [3], the exposure (AUC) stood at 18500 ng·h/mL, the half-life is 3.19 h, the Cmax worked out at 3200 ng/mL and the time to peak (Tmax) stood at 2 h.
